# Test results taken from EP4470536A1, “COMPOUND FOR USE IN TREATING FIBRODYSPLASIA OSSIFICANS PROGRESSIVA (FOP)” (Queen's University At Kingston, priority 2023, dated 2024).
# Test: Mapping a therapeutic window (ED50 versus MTD)
# Assay type: in vivo
# Excerpt: For both palovarotene and compound 1 efficacy and toxicity were correlated to the pharmacokinetic parameters AUC (area under the curve), Cmax (maximum concentration detected following compound administration), and duration above EC50/IC50.This illustrated that efficacy was best predicted by duration above the EC50/IC50 (effective concentration for 50% response (in the case of palovarotene), or for 50% inhibition (in the case of compound 1)), whereas toxicity was best predicted by Cmax. […] For palovarotene, efficacy data from Example 7 and toxicity data from Example 8 above were compiled with mined data from the following publications: • Lindborg et al (2018). "Cartilage-derived retinoic acid-sensitive protein (CD-RAP): A stage-specific biomarker of heterotopic endochondral ossification (HEO) in fibrodysplasia ossificans progressiva (FOP)." Bone 109: 153-157. • Chakkalakal, S. A., et al. (2016). "Palovarotene Inhibits Heterotopic Ossification and Maintains Limb Mobility and Growth in Mice With the Human ACVR1(R206H) Fibrodysplasia Ossificans Progressiva (FOP) Mutation." J Bone Miner Res 31(9): 1666-1675. • Inubushi, T., et al. (2018). "Palovarotene Inhibits Osteochondroma Formation in a Mouse Model of Multiple Hereditary Exostoses." J Bone Miner Res 33(4): 658-666. • Lees-Shepard, J. B., et al. (2018). […] "Potent inhibition of heterotopic ossification by nuclear retinoic acid receptor-gamma agonists." Nat Med 17(4): 454-460.
smiles,measurement,setting,value
"CC(C)(C)c1cccc(-c2cc3cc(/C=C/C(=O)O)ccc3[nH]2)c1 [Compound 1, (E)-3-(2-(3-(tert-butyl)phenyl)-1H-indol-5-yl)acrylic acid]",ED50,"Mus musculus, BID, effective dose for 50% reduction in ectopic bone",4 mg/kg
same,MTD at 4 weeks,"both sexes, FVB, mouse, in vivo",10 mg/kg
